# Source: the supplement of paper PMC10307832
# Assays:
# Assay in all cases: relative viability (nuclei count vs DMSO), 5 days (fraction); higher = more cells survive
# Sunitinib + OSI-027 = compound: CCN(CC)CCNC(=O)c1c(C)[nH]c(/C=C2\C(=O)Nc3ccc(F)cc32)c1C [Sunitinib] + COc1cccc2cc(-c3nc([C@H]4CC[C@H](C(=O)O)CC4)n4ncnc(N)c34)[nH]c12 [OSI-027] (partner 0.5 µM)
# Method in brief: (§1)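 Lung cancer cell lines in 1536-well plates got either a single drug or a fixed anchor-drug dose together with five library-drug doses (not always all listed) in √10 steps, by pin tool, on the day after seeding. Nuclei were counted after 5 days, and relative viability is the treated-to-vehicle ratio of nuclei counts. Values are medians of duplicate plates.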
# Sunitinib + Trametinib = compound: CCN(CC)CCNC(=O)c1c(C)[nH]c(/C=C2\C(=O)Nc3ccc(F)cc32)c1C [Sunitinib] + CC(=O)Nc1cccc(-n2c(=O)n(C3CC3)c(=O)c3c(Nc4ccc(I)cc4F)n(C)c(=O)c(C)c32)c1 [Trametinib] (partner 0.02 µM)
# Method in brief: as §1
# Sunitinib + Phenformin = compound: CCN(CC)CCNC(=O)c1c(C)[nH]c(/C=C2\C(=O)Nc3ccc(F)cc32)c1C [Sunitinib] + N=C(N)NC(=N)NCCc1ccccc1 [Phenformin] (partner 250 µM)
# Method in brief: as §1
# Sunitinib + Crizotinib = compound: CCN(CC)CCNC(=O)c1c(C)[nH]c(/C=C2\C(=O)Nc3ccc(F)cc32)c1C [Sunitinib] + C[C@@H](Oc1cc(-c2cnn(C3CCNCC3)c2)cnc1N)c1c(Cl)ccc(F)c1Cl [Crizotinib] (partner 1 µM)
# Method in brief: as §1
Cell Line,relative viability (Sunitinib + OSI-027; first compound 0.02 µM),relative viability (Sunitinib + OSI-027; first compound 0.06325 µM),relative viability (Sunitinib + OSI-027; first compound 0.2 µM),relative viability (Sunitinib + OSI-027; first compound 0.6325 µM),relative viability (Sunitinib + OSI-027; first compound 2 µM),relative viability (Sunitinib + Trametinib; first compound 0.02 µM),relative viability (Sunitinib + Trametinib; first compound 0.06325 µM),relative viability (Sunitinib + Trametinib; first compound 0.2 µM),relative viability (Sunitinib + Trametinib; first compound 0.6325 µM),relative viability (Sunitinib + Trametinib; first compound 2 µM),relative viability (Sunitinib + Phenformin; first compound 0.02 µM),relative viability (Sunitinib + Phenformin; first compound 0.06325 µM),relative viability (Sunitinib + Phenformin; first compound 0.2 µM),relative viability (Sunitinib + Phenformin; first compound 0.6325 µM),relative viability (Sunitinib + Phenformin; first compound 2 µM),relative viability (Sunitinib + Crizotinib; first compound 0.02 µM),relative viability (Sunitinib + Crizotinib; first compound 0.06325 µM),relative viability (Sunitinib + Crizotinib; first compound 0.2 µM),relative viability (Sunitinib + Crizotinib; first compound 0.6325 µM),relative viability (Sunitinib + Crizotinib; first compound 2 µM)
NCI-H2085,0.761,0.768,0.73,0.96,1.06,0.5,0.515,0.515,0.634,0.71,0.686,0.916,0.788,0.877,0.754,0.844,0.817,1.03,0.85,0.798
NCI-H2087,0.423,0.755,0.636,0.577,0.449,0.2,0.234,0.266,0.211,0.237,0.456,0.398,0.545,0.507,0.42,0.909,1.09,1.15,0.967,0.791
NCI-H2126,0.738,0.665,0.988,0.773,0.672,0.545,0.59,0.612,0.573,0.605,0.509,0.534,0.537,0.561,0.517,1.01,1.04,1.07,1.01,1.01
NCI-H2170,0.746,0.687,0.802,0.737,0.576,0.905,0.915,1.05,0.927,0.921,0.474,0.398,0.436,0.408,0.367,1.11,1.12,1.34,1.14,1.17
NCI-H2228,0.523,0.658,0.625,0.529,0.411,0.574,0.568,0.593,0.558,0.285,0.332,0.405,0.315,0.341,0.322,0.495,0.553,0.435,0.583,0.351
NCI-H2347,0.451,0.507,0.67,0.384,0.552,0.293,0.251,0.24,0.314,0.296,0.486,0.484,0.567,0.384,0.404,0.665,0.795,–,0.731,0.822
NCI-H2405,0.647,0.643,0.631,0.65,0.673,0.59,0.582,0.662,0.672,0.628,0.399,0.391,0.406,0.395,0.406,0.803,0.868,0.955,0.862,0.889
NCI-H3122,0.874,–,1.06,0.917,0.69,0.289,0.287,0.231,0.233,0.299,0.35,0.387,0.366,0.361,0.288,0.273,0.247,0.249,0.241,0.297
